Results: PubChem BioAssay AID1919010 (Molecular Pharmacology Branch, DTP, NCI, 2023)

System: Hs578T complex spheroid growth, percent test/control
Experiment: Anticancer human tumor Hs578T cell line growth inhibition [AhR];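 note: luminescent viability signal as a proxy for spheroid growth; spheroids exposed to agents for one week after three days of growth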
Details: for IC50: curve of first compound; for viability, T/C: stronger effect = lower value
In short: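 Spheroids combined tumor cells with HUVEC endothelial cells and human MSCs as stroma. AhR antagonists were paired with standard or investigational drugs, each dosed in half-log steps down from near clinical Cmax, or from 10 microM where Cmax was unknown.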

[1] = second compound 0.1 µM, first compound 0.0316 µM
[2] = second compound 0.1 µM, first compound 0.1 µM
[3] = second compound 0.1 µM, first compound 0.316 µM
[4] = second compound 0.1 µM, first compound 1 µM
[5] = second compound 0.1 µM, first compound 3.16 µM
[6] = second compound 0.1 µM, first compound 10 µM
[7] = second compound 0.316 µM, first compound 0.0316 µM
[8] = second compound 0.316 µM, first compound 0.1 µM
[9] = second compound 0.316 µM, first compound 0.316 µM
[10] = second compound 0.316 µM, first compound 1 µM
[11] = second compound 0.316 µM, first compound 3.16 µM
[12] = second compound 0.316 µM, first compound 10 µM
[13] = second compound 1 µM, first compound 0.0316 µM
[14] = second compound 1 µM, first compound 0.1 µM
[15] = second compound 1 µM, first compound 0.316 µM
[16] = second compound 1 µM, first compound 1 µM
[17] = second compound 1 µM, first compound 3.16 µM
[18] = second compound 1 µM, first compound 10 µM
[19] = second compound 3.16 µM, first compound 0.0316 µM
[20] = second compound 3.16 µM, first compound 0.1 µM
[21] = second compound 3.16 µM, first compound 0.316 µM
[22] = second compound 3.16 µM, first compound 1 µM
[23] = second compound 3.16 µM, first compound 3.16 µM
[24] = second compound 3.16 µM, first compound 10 µM
[25] = second compound 10 µM, first compound 0.0316 µM
[26] = second compound 10 µM, first compound 0.1 µM
[27] = second compound 10 µM, first compound 0.316 µM
[28] = second compound 10 µM, first compound 1 µM
[29] = second compound 10 µM, first compound 3.16 µM
[30] = second compound 10 µM, first compound 10 µM

| IC50 (second compound 0.1 µM) | IC50 (second compound 0.316 µM) | IC50 (second compound 1 µM) | IC50 (second compound 3.16 µM) | IC50 (second compound 10 µM) | Compound | viability, T/C [1] | viability, T/C [2] | viability, T/C [3] | viability, T/C [4] | viability, T/C [5] | viability, T/C [6] | viability, T/C [7] | viability, T/C [8] | viability, T/C [9] | viability, T/C [10] | viability, T/C [11] | viability, T/C [12] | viability, T/C [13] | viability, T/C [14] | viability, T/C [15] | further results |
| --- | --- | --- | --- | --- | --- | --- | --- | --- | --- | --- | --- | --- | --- | --- | --- | --- | --- | --- | --- | --- | --- |
| 2.9 µM | 2.84 µM | 2.14 µM | 0.774 µM | < 0.0316 µM | NS(=O)(=O)OCC1CC(n2ccc3c(NC4CCc5ccccc54)ncnc32)CC1O (stereo not given) + Cc1cncc(-c2nc(NCCc3c[nH]c4ccccc34)c3ncn(C(C)C)c3n2)c1 | 114% | 94.9% | 83.3% | 60.2% | 51% | 35.1% | 128% | 100% | 84.2% | 60.6% | 48.2% | 39.6% | 115% | 98.9% | 99.4% | viability, T/C [16]: 59.4%; viability, T/C [17]: 48.3%; viability, T/C [18]: 36.6%; viability, T/C [19]: 69.2%; viability, T/C [20]: 66%; viability, T/C [21]: 66.1%; viability, T/C [22]: 45.4%; viability, T/C [23]: 35.4%; viability, T/C [24]: 38.3%; viability, T/C [25]: 6.36%; viability, T/C [26]: 6.52%; viability, T/C [27]: 7.75%; viability, T/C [28]: 5.11%; viability, T/C [29]: 5.06%; viability, T/C [30]: 3.64% |
| > 10 µM | > 10 µM | > 10 µM | 8.99 µM | 5.16 µM | COc1cc(C2c3cc4c(cc3C(OC3OC5COC(C)OC5C(O)C3O)C3COC(=O)C23)OCO4)cc(OC)c1O (stereo not given) + Cc1ccccc1N=Nc1ccc(NC(=O)c2ccnn2C)c(C)c1 | 97.1% | 96.1% | 77.3% | 72.8% | 79.5% | 57.9% | 101% | 103% | 88.9% | 83.1% | 72.2% | 68.9% | 92.6% | 86.4% | 77.3% | viability, T/C [16]: 73.9%; viability, T/C [17]: 66.3%; viability, T/C [18]: 63.1%; viability, T/C [19]: 81.2%; viability, T/C [20]: 78.8%; viability, T/C [21]: 76.9%; viability, T/C [22]: 73.7%; viability, T/C [23]: 68.5%; viability, T/C [24]: 48%; viability, T/C [25]: 68.6%; viability, T/C [26]: 68.1%; viability, T/C [27]: 67.6%; viability, T/C [28]: 57.6%; viability, T/C [29]: 54.4%; viability, T/C [30]: 44.9% |
| 4.31 µM | 3.74 µM | > 10 µM | < 0.0316 µM | < 0.0316 µM | Nc1ccn(C2OC(CO)C(O)C2(F)F)c(=O)n1 (stereo not given) + Cc1ccccc1N=Nc1ccc(NC(=O)c2ccnn2C)c(C)c1 | 55.6% | 48.1% | 52.5% | 49.2% | 54% | 47.9% | 54% | 44.9% | 53.9% | 49.8% | 49.9% | 50% | 61% | 52% | 49.1% | viability, T/C [16]: 46.9%; viability, T/C [17]: 48.1%; viability, T/C [18]: 56.8%; viability, T/C [19]: 48.7%; viability, T/C [20]: 47.3%; viability, T/C [21]: 47.4%; viability, T/C [22]: 47.9%; viability, T/C [23]: 45.9%; viability, T/C [24]: 44.6%; viability, T/C [25]: 45.1%; viability, T/C [26]: 46.1%; viability, T/C [27]: 35.6%; viability, T/C [28]: 36.2%; viability, T/C [29]: 37%; viability, T/C [30]: 41.4% |
